Source: ChEMBL document CHEMBL2417484, “Mitotic kinesin Eg5 overcomes inhibition to the phase I/II clinical candidate SB743921 by an allosteric resistance mechanism” (J Med Chem, 2013)
Positions count from the first letter of the chain named.

How the values were obtained:
[1] = target: T1, Kinesin-like protein KIF11 (Homo sapiens) (UniProt P52732); experiment: Inhibition of microtubule-stimulated ATPase activity of N-terminal His-6-tagged human wild type Eg5 (1 to 368) expressed in Escherichia coli BL21 by pyruvate kinase/lactate dehydrogenase-linked assay relative to control
T1 sequence (whole entry): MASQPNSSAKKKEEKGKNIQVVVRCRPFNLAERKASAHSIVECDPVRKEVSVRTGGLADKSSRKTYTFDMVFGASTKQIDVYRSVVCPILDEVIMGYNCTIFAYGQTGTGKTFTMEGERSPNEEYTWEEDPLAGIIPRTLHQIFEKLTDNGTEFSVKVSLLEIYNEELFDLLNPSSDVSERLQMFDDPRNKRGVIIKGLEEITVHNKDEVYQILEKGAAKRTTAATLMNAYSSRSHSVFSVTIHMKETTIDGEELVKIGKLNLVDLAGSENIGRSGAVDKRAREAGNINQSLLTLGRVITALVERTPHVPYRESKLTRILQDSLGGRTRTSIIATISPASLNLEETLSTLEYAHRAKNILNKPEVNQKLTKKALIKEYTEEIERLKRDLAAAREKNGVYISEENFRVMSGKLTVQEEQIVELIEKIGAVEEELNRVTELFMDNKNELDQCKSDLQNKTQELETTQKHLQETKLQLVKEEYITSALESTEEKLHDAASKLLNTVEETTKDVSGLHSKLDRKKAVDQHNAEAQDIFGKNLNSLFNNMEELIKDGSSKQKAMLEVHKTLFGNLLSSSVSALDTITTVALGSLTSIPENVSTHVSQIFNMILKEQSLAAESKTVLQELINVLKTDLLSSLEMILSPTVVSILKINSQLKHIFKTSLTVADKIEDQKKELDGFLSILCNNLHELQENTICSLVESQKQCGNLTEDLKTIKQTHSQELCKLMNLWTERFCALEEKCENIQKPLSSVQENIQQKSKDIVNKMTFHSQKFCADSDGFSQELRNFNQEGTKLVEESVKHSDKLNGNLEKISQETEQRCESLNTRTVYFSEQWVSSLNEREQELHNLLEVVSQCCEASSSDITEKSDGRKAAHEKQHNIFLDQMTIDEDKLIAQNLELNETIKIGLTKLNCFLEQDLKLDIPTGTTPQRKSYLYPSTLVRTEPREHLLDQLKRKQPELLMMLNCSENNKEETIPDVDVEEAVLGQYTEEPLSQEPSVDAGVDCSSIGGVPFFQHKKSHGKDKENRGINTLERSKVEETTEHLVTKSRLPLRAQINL

[2] = test system: T2, Kinesin-like protein KIF11 (Homo sapiens), P52732 [A133D]; experiment: Inhibition of microtubule-stimulated ATPase activity of human Eg5 A133D mutant expressed in Escherichia coli BL21 by pyruvate kinase/lactate dehydrogenase-linked assay relative to control
T2 sequence (whole entry): T1 sequence (whole entry) with A133D

[3] = test system: T3, Kinesin-like protein KIF11 (Homo sapiens), P52732 [D130V,A133D]; experiment: Inhibition of microtubule-stimulated ATPase activity of human Eg5 D130V/A133D mutant expressed in Escherichia coli BL21 by pyruvate kinase/lactate dehydrogenase-linked assay relative to control
T3 sequence (whole entry): T1 sequence (whole entry) with D130V, A133D

[4] = test system: T4, Kinesin-like protein KIF11 (Homo sapiens), P52732 [D130V]; experiment: Inhibition of microtubule-stimulated ATPase activity of human Eg5 D130V mutant expressed in Escherichia coli BL21 by pyruvate kinase/lactate dehydrogenase-linked assay relative to control
T4 sequence (whole entry): T1 sequence (whole entry) with D130V

ICmax [1]: 95%
ICmax [2]: 50%
ICmax [3]: 10%
ICmax [4]: 50%
Compound: Cc1ccc(C(=O)N(CCCN)[C@@H](c2oc3cc(Cl)ccc3c(=O)c2Cc2ccccc2)C(C)C)cc1
